According to the supplement of paper PMC11579375:

Experiments:
Experiment in all cases: area under the viability dose-response curve (AUC) (AUC (arbitrary units, max 500 = no viability loss)); higher = less sensitive (higher viability)
Settings in all cases: exposure time: 120 h; concentration range: 0.1 nM - 10 µM, 6 doses
[1] = test system: 17E (embryonal-type hepatoblastoma organoid)
Method: (§1)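 Patient-derived hepatoblastoma tumor organoids (about 50 organoids per well, 384-well plates, medium with 5% BME) were treated with the PMC pediatric cancer drug library. Each drug was tested in duplicate at 6 concentrations (0.1 nM to 10 µM, 10-fold steps).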

[2] = test system: 10F2 (fetal-II hepatoblastoma organoid with high liver markers)
Method: as §1

[3] = test system: 13F2 (fetal-II hepatoblastoma organoid with high liver markers)
Method: as §1

[4] = test system: 22E (embryonal-type hepatoblastoma organoid)
Method: as §1

[5] = test system: 13E (embryonal-type hepatoblastoma organoid)
Method: as §1

[6] = test system: 17F1 (fetal-I hepatoblastoma organoid with intermediate liver markers)
Method: as §1

[7] = test system: 135F2 (fetal-II hepatoblastoma organoid with high liver markers)
Method: as §1

[8] = test system: 96F1 (fetal-I hepatoblastoma organoid with intermediate liver markers)
Method: as §1

[9] = test system: 3E (embryonal-type hepatoblastoma organoid)
Method: as §1

[10] = test system: 27F1 (fetal-I hepatoblastoma organoid with intermediate liver markers)
Method: as §1

[11] = test system: 8F1 (fetal-I hepatoblastoma organoid with intermediate liver markers)
Method: as §1

Compound	area under the viability dose-response curve [1]	area under the viability dose-response curve [2]	area under the viability dose-response curve [3]	area under the viability dose-response curve [4]	area under the viability dose-response curve [5]	area under the viability dose-response curve [6]	area under the viability dose-response curve [7]	area under the viability dose-response curve [8]	area under the viability dose-response curve [9]	area under the viability dose-response curve [10]	area under the viability dose-response curve [11]
COc1ncc(-c2nc3c(n2C(C)C)[C@H](c2ccc(Cl)cc2)N(c2cc(Cl)cn(C)c2=O)C3=O)c(OC)n1 [Siremadlin]	318	200	246	414	383	395	328	385	306	359	373
COCCNCc1ccc(-c2cc3nccc(Oc4ccc(NC(=O)C5(C(=O)Nc6ccc(F)cc6)CC5)cc4F)c3s2)nc1 [Sitravatinib]	375	374	425	431	436	457	432	433	417	442	441
Cc1c(C(=O)Nc2ccc(N3C[C@@H](C)O[C@@H](C)C3)nc2)cccc1-c1ccc(OC(F)(F)F)cc1 [Sonidegib]	466	409	470	469	485	477	470	465	477	> 500	477
CNC(=O)c1cc(Oc2ccc(NC(=O)Nc3ccc(Cl)c(C(F)(F)F)c3)cc2)ccn1 [Sorafenib]	437	443	440	452	454	448	431	459	448	458	453
C[C@@H](NC(=O)c1ncnc(N)c1Cl)c1ncc(C(=O)Nc2cc(C(F)(F)F)c(Cl)cn2)s1 [TAK-580]	> 500	433	485	> 500	> 500	> 500	449	> 500	> 500	> 500	> 500
CN(C)C/C=C/C(=O)Nc1ccc(C(=O)Nc2cccc(Nc3ncc(Cl)c(-c4c[nH]c5ccccc45)n3)c2)cc1 [THZ1]	281	256	276	241	291	371	314	343	223	435	410
CN(C)C/C=C/C(=O)Nc1ccc(C(=O)N2CCC[C@@H](Nc3ncc(Cl)c(-c4c[nH]c5ccccc45)n3)C2)cc1 [THZ531]	374	332	376	320	360	332	367	340	263	336	344
Cn1ncnc1[C@H]1c2n[nH]c(=O)c3cc(F)cc(c23)N[C@@H]1c1ccc(F)cc1 [Talazoparib]	383	367	328	444	399	486	392	439	341	403	438
C=CCNC1=C2C[C@@H](C)C[C@H](OC)[C@H](O)[C@@H](C)/C=C(\C)[C@H](OC(N)=O)[C@@H](OC)/C=C\C=C(/C)C(=O)NC(=CC1=O)C2=O [Tanespimycin]	337	220	245	346	384	373	267	327	382	311	356
Cc1nc(-c2cn3c(n2)-c2ccc(-c4cnn(C(C)(C)C(N)=O)c4)cc2OCC3)n(C(C)C)n1 [Taselisib]	349	361	351	415	388	493	435	437	305	413	475
CCN(c1cc(-c2ccc(CN3CCOCC3)cc2)cc(C(=O)NCc2c(C)cc(C)[nH]c2=O)c1C)C1CCOCC1 [Tazemetostat]	415	448	360	481	479	482	473	473	461	475	> 500
Cn1nnc2c(C(N)=O)ncn2c1=O [Temozolomide]	462	468	487	490	> 500	494	> 500	480	499	> 500	> 500
CO[C@H]1C[C@@H]2CC[C@@H](C)[C@@](O)(O2)C(=O)C(=O)N2CCCC[C@H]2C(=O)O[C@H]([C@H](C)C[C@@H]2CC[C@@H](OC(=O)C(C)(CO)CO)[C@H](OC)C2)CC(=O)[C@H](C)/C=C(\C)[C@@H](O)[C@@H](OC)C(=O)[C@H](C)C[C@H](C)/C=C/C=C/C=C/1C [Temsirolimus]	341	339	342	406	373	471	469	496	280	475	493
S=P(N1CC1)(N1CC1)N1CC1 [ThioTEPA]	443	394	433	474	483	488	440	461	400	472	478
O=C1NC(=O)[C@@H](c2cn3c4c(cccc24)CCC3)[C@@H]1c1c[nH]c2ccccc12 [Tivantinib]	345	320	350	404	358	415	367	377	349	375	455
CC[C@@]1(O)C(=O)OCc2c1cc1n(c2=O)Cc2cc3c(CN(C)C)c(O)ccc3nc2-1 [Topotecan]	269	311	239	416	328	319	291	284	257	348	372
Cc1cccc(-c2[nH]c(CNc3ccccc3F)nc2-c2ccc3ncnn3c2)n1 [Vactosertib]	> 500	394	> 500	481	493	> 500	481	496	419	> 500	491
C[C@@H]1COC(Nc2ccc3ncnc(Nc4ccc(OCc5nccs5)c(Cl)c4)c3c2)=N1 [Varlitinib]	480	382	372	481	476	447	465	430	485	433	476
CCCS(=O)(=O)Nc1ccc(F)c(C(=O)c2c[nH]c3ncc(-c4ccc(Cl)cc4)cc23)c1F [Vemurafenib]	496	395	440	447	475	499	498	490	490	499	495
CC[C@]1(O)C[C@@H]2CN(CCc3c([nH]c4ccccc34)[C@@](C(=O)OC)(c3cc4c(cc3OC)N(C)[C@H]3[C@@](O)(C(=O)OC)[C@H](OC(C)=O)[C@]5(CC)C=CCN6CC[C@]43[C@@H]65)C2)C1 [Vinblastine]	183	160	189	223	164	208	176	156	148	194	220
CC[C@]1(O)C[C@H]2CN(CCc3c([nH]c4ccccc34)[C@@](C(=O)OC)(c3cc4c(cc3OC)N(C=O)[C@H]3[C@@](O)(C(=O)OC)[C@H](OC(C)=O)[C@]5(CC)C=CCN6CC[C@]43[C@@H]65)C2)C1 [Vincristine]	181	188	222	193	174	180	209	196	125	218	243
CC[C@]1(O)C[C@@H]2CN(CCc3c([nH]c4ccccc34)[C@@](C(=O)OC)(c3cc4c(cc3OC)N(C)[C@H]3[C@@](O)(C(N)=O)[C@H](O)[C@]5(CC)C=CCN6CC[C@]43[C@@H]65)C2)C1 [Vindesine]	206	195	246	219	204	239	202	173	170	238	211
CS(=O)(=O)c1ccc(C(=O)Nc2ccc(Cl)c(-c3ccccn3)c2)c(Cl)c1 [Vismodegib]	> 500	443	490	452	496	489	473	494	> 500	497	> 500
CNC(=O)c1cccc(-c2ccc3c(N4CCOC[C@@H]4C)nc(N4CCOC[C@@H]4C)nc3n2)c1 [Vistusertib]	392	324	342	426	409	498	407	460	376	407	470
CC[C@@H]1C(=O)N(C)c2cnc(Nc3ccc(C(=O)N[C@H]4CC[C@H](N5CCN(CC6CC6)CC5)CC4)cc3OC)nc2N1C(C)C [Volasertib]	249	227	278	326	263	331	257	281	278	255	351
O=C(CCCCCCC(=O)Nc1ccccc1)NO [Vorinostat]	406	404	400	421	428	437	408	435	379	440	452
Oc1nc(-c2ccc(C(F)(F)F)cc2)nc2c1CSCC2 [XAV-939]	> 500	456	477	491	486	> 500	486	> 500	496	> 500	490
CN[C@@H](C)C(=O)N[C@H]1CN(C(=O)CC(C)C)CC[C@H]2CC[C@@H](C(=O)NC(c3ccccc3)c3ccccc3)N2C1=O [Xevinapant]	454	445	498	301	484	489	> 500	> 500	351	> 500	496
